Assay [1] concerns the target T1, NAD-dependent protein deacetylase sirtuin-1 (Homo sapiens, UniProt Q96EB6).
T1 sequence (Q96EB6 whole entry): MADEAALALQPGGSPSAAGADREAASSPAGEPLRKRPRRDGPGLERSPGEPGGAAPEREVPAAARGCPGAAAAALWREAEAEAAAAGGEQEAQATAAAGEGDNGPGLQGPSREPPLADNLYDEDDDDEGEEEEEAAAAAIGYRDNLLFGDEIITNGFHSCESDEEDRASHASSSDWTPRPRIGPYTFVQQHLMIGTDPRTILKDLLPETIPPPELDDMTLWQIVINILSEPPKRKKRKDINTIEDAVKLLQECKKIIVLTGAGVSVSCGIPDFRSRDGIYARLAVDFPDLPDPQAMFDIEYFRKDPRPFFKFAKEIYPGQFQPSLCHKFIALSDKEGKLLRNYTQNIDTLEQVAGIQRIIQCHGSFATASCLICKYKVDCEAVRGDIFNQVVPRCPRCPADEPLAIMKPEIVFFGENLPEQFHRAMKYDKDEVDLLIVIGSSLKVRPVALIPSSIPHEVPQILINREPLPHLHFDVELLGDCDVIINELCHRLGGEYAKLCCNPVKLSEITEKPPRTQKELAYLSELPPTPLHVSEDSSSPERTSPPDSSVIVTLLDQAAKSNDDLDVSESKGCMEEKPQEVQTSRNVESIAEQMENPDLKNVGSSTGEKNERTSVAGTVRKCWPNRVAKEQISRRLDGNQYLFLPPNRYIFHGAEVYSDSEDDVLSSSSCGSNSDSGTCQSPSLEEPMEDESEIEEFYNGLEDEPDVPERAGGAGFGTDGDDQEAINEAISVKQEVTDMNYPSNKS
Description: Inhibition of His6-tagged SIRT1 (unknown origin) expressed in Escherichia coli BL21 (DE3) preincubated for 15 mins followed by NAD+ addition and measured after 30 mins by FLucK529Ac based luminescence assay

The target in assay [2] is T2, NAD-dependent protein deacetylase sirtuin-3, mitochondrial (Homo sapiens, UniProt Q9NTG7).
T2 sequence (Q9NTG7 whole entry): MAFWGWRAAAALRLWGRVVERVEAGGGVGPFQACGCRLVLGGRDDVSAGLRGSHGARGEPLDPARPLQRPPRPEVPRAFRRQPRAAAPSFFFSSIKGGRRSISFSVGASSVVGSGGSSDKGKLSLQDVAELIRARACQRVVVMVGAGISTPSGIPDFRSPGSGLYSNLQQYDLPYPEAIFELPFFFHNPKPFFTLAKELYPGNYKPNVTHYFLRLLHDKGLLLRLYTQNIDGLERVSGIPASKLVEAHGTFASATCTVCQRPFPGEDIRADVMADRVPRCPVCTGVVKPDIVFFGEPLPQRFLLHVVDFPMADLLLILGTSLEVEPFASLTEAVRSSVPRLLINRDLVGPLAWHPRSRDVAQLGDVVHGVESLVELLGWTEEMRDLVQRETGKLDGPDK
Nature of the assay: Inhibition of His6-tagged/TEV fused SIRT3 (unknown origin) expressed in Escherichia coli BL21 (DE3) preincubated for 15 mins followed by NAD+ addition and measured after 30 mins by FLucK529Ac based luminescence assay.

The target of assay [3] is T3, NAD-dependent protein deacetylase sirtuin-2 (Homo sapiens, UniProt Q8IXJ6).
T3 sequence (Q8IXJ6 whole entry): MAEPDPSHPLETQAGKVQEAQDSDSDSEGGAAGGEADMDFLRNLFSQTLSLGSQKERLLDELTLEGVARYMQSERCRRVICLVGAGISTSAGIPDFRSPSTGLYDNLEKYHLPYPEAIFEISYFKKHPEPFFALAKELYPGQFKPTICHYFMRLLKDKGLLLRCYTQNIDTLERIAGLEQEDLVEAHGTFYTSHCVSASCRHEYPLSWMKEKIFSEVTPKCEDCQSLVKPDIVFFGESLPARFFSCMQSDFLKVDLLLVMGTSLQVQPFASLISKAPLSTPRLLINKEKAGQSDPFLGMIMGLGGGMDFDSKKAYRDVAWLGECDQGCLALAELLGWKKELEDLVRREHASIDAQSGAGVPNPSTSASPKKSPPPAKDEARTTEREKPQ
Nature of the assay: Inhibition of His6-tagged/TEV fused SIRT2 (unknown origin) expressed in Escherichia coli BL21 (DE3) preincubated for 15 mins followed by NAD+ addition and measured after 30 mins by FLucK529Ac based luminescence assay.

Molecules are shown by their SMILES.

For the compound `NC(=O)C1CNc2ccccc2O1` (configuration not stated), the IC50 in assay [1], in assay [2] and in assay [3] was above 60 µM throughout.
In the case of `CN1CC(C(N)=O)Oc2ccccc21` (configuration not stated), the IC50 in assay [1], in assay [2] and in assay [3] was above 60 µM each time.
With `NC(=O)C1CN(Cc2ccc(C(F)(F)F)cc2)c2ccccc2O1` (configuration not stated), the figures for the IC50 in assay [1], in assay [2] and in assay [3] were 28.5 µM, above 60 µM and 22.8 µM, respectively.
Consider `N#Cc1cccc(CN2CC(C(N)=O)Oc3ccccc32)c1` (configuration not stated), for which the IC50 in assay [1] is 0.43 µM; in assay [2], above 60 µM; in assay [3] it was 11.2 µM.
On to `Cc1ccccc1CN1CC(C(N)=O)Oc2ccccc21` (configuration not stated), for which the IC50 in assay [1] was 2.49 µM; in assay [2], above 60 µM; in assay [3] it was 22.2 µM.
For `CC(=O)Nc1cccc(CN2CC(C(N)=O)Oc3ccccc32)c1` (configuration not stated), the IC50 was 2.4 µM in assay [1], above 60 µM in assay [2] and above 60 µM in assay [3].
As to `NC(=O)C1CN(Cc2ccccc2I)c2ccccc2O1` (configuration not stated), the IC50 in assay [1] was 0.47 µM; in assay [2], above 60 µM; in assay [3], above 60 µM.
`COc1ccc(C(=O)N2CC(C(N)=O)Oc3ccccc32)cc1` (configuration not stated): the IC50 in assay [1] and in assay [3] was above 60 µM in each case.
In the case of `CC(=O)N1CC(C(N)=O)Oc2ccccc21` (configuration not stated), the IC50 in assay [1], in assay [2] and in assay [3] was above 60 µM each time.
Take `COC(=O)c1ccc(CN2CC(C(N)=O)Oc3ccccc32)cc1` (configuration not stated): the IC50 was 3.45 µM in assay [1], above 60 µM in assay [2] and above 60 µM in assay [3].
On to `CC(=O)Nc1ccc(CN2CC(C(N)=O)Oc3ccccc32)cc1` (configuration not stated), for which the IC50 was 10.4 µM in assay [1], above 60 µM in assay [2] and above 60 µM in assay [3].
As to `NC(=O)C1CN(Cc2ccccc2C(=O)O)c2ccccc2O1` (configuration not stated), the IC50 in assay [1] was 13.9 µM; in assay [2] it was above 60 µM; in assay [3] it was above 60 µM.
Regarding `NC(=O)C1CN(Cc2cn(Cc3ccccc3)nn2)c2ccccc2O1` (configuration not stated), the IC50 is 8.05 µM in assay [1], above 60 µM in assay [2] and 41.9 µM in assay [3].
Take `NC(=O)C1CN(Cc2ccccc2N)c2ccccc2O1` (configuration not stated): the half-maximal inhibitory concentration (IC50) is 4.91 µM in assay [1], above 60 µM in assay [2] and 36.1 µM in assay [3].
As for `NC(=O)C1CN(Cc2ccccc2[N+](=O)[O-])c2ccccc2O1` (configuration not stated), the IC50 was above 60 µM in assay [2] and 10.6 µM in assay [3].
For `CC(=O)Nc1ccccc1CN1CC(C(N)=O)Oc2ccccc21` (configuration not stated), the results for the IC50 in assay [1], in assay [2] and in assay [3] were 31.6 µM, above 60 µM and above 60 µM, respectively.
For the compound `NC(=O)C1CN(Cc2ccccc2)c2ccccc2O1` (configuration not stated), the IC50 was 8.54 µM in assay [1], above 60 µM in assay [2] and above 60 µM in assay [3].
On to `NC(=O)C1CN(Cc2ccc(-c3ccccc3)cc2)c2ccccc2O1` (configuration not stated), for which the IC50 in assay [1], in assay [2] and in assay [3] was above 60 µM throughout.
As to `COc1cccc(CN2CC(C(N)=O)Oc3ccccc32)c1` (configuration not stated), the IC50 was 2.13 µM in assay [1], above 60 µM in assay [2] and 15.4 µM in assay [3].
For the compound `NC(=O)C1CN(Cc2ccc3nonc3c2)c2ccccc2O1` (configuration not stated), the IC50 in assay [1] was above 60 µM; in assay [2], above 60 µM; in assay [3] it was 0.6 µM.
Turning to `NC(=O)C1CN(C(=O)c2ccccc2)c2ccccc2O1` (configuration not stated), the IC50 in assay [1], in assay [2] and in assay [3] was above 60 µM each time.
Take `NC(=O)C1CN(Cc2ccc3c(c2)OCO3)c2ccccc2O1` (configuration not stated): the IC50 is 1.9 µM in assay [1], above 60 µM in assay [2] and 26 µM in assay [3].
As for `NC(=O)C1CN(Cc2ccccc2F)c2ccccc2O1` (configuration not stated), the IC50 in assay [1] is 1.77 µM; in assay [2], above 60 µM; in assay [3], 35.4 µM.
Take `NC(=O)C1CN(Cc2cccnc2)c2ccccc2O1` (configuration not stated): the figures for the 50% inhibitory concentration (IC50) in assay [1], in assay [2] and in assay [3] were 4.7 µM, above 60 µM and 58 µM, respectively.
As for `CC(C)(C)OC(=O)c1ccc(CN2CC(C(N)=O)Oc3ccccc32)cc1` (configuration not stated), the IC50 in assay [1] was 20.1 µM; in assay [2], above 60 µM; in assay [3] it was 42 µM.
For the compound `NC(=O)C1CN(Cc2ccccc2Cl)c2ccccc2O1` (configuration not stated), the IC50 was 0.67 µM in assay [1], above 60 µM in assay [2] and 33.6 µM in assay [3].
On the same counts, the results for `NC(=O)C1CN(Cc2ccc([N+](=O)[O-])cc2)c2ccccc2O1` (configuration not stated) are 1.06 µM, above 60 µM and 34.7 µM.
In the case of `NC(=O)C1CN(Cc2csc(N)n2)c2ccccc2O1` (configuration not stated), the IC50 was 1.48 µM in assay [1], above 60 µM in assay [2] and above 60 µM in assay [3].
Consider `CCOC(=O)C1CNc2ccccc2O1` (configuration not stated), for which the IC50 in assay [1], in assay [2] and in assay [3] was above 60 µM in each case.
With `NC(=O)C1CN(Cc2cc(C(F)(F)F)cc(C(F)(F)F)c2)c2ccccc2O1` (configuration not stated), the IC50 in assay [1] is 6.04 µM; in assay [2], above 60 µM; in assay [3] it was 0.52 µM.
On to `O=C(O)C1CNc2ccccc2O1` (configuration not stated), for which the IC50 in assay [1], in assay [2] and in assay [3] was above 60 µM throughout.
Turning to `CC(=O)Nc1nc(CN2CC(C(N)=O)Oc3ccccc32)cs1` (configuration not stated), the IC50 is 0.62 µM in assay [1] and above 60 µM in assay [3].
As for `Cc1cccc(C)c1CN1CC(C(N)=O)Oc2ccccc21` (configuration not stated), the IC50 in assay [1] is 37.4 µM; in assay [2], above 60 µM; in assay [3], above 60 µM.
Regarding `NC(=O)C1CN(Cc2cnnn2Cc2ccccc2)c2ccccc2O1` (configuration not stated), the IC50 in assay [1] was 14.1 µM; in assay [2], above 60 µM; in assay [3], 32.6 µM.
Turning to `COC(=O)c1ccccc1CN1CC(C(N)=O)Oc2ccccc21` (configuration not stated), the IC50 in assay [1] is 0.49 µM; in assay [2], above 60 µM; in assay [3] it was above 60 µM.
Take `C#CCN1CC(C(N)=O)Oc2ccccc21` (configuration not stated): the IC50 in assay [1], in assay [2] and in assay [3] was above 60 µM throughout.
For the compound `NC(=O)C1CN(Cc2ccccc2C(F)(F)F)c2ccccc2O1` (configuration not stated), the IC50 in assay [1] is 0.97 µM; in assay [2] it was above 60 µM; in assay [3], 25 µM.
On the same counts, the results for `NC(=O)C1CN(Cc2ccccc2Br)c2ccccc2O1` (configuration not stated) are 0.56 µM, above 60 µM and 16.6 µM.
The corresponding values for `COc1ccc(CN2CC(C(N)=O)Oc3ccccc32)cc1` (configuration not stated) are 1.45 µM, above 60 µM and 31.8 µM.
With `CC(C)CC(=O)N1CC(C(N)=O)Oc2ccccc21` (configuration not stated), the IC50 in assay [1], in assay [2] and in assay [3] was above 60 µM each time.
`NC(=O)C1CN(Cc2cccc([N+](=O)[O-])c2)c2ccccc2O1` (configuration not stated): the figures for the IC50 in assay [1], in assay [2] and in assay [3] were 0.23 µM, above 60 µM and 4.19 µM, respectively.
In the case of `NC(=O)C1CN(Cc2cccc(Br)c2)c2ccccc2O1` (configuration not stated), the IC50 in assay [1] was 1.27 µM; in assay [2], above 60 µM; in assay [3], 1.76 µM.
With `NC(=O)C1CN(Cc2ccccc2O)c2ccccc2O1` (configuration not stated), the IC50 in assay [1] was 0.82 µM; in assay [2], above 60 µM; in assay [3], 12.3 µM.
The corresponding values for `CC(C)(C)OC(=O)Nc1nc(CN2CC(C(N)=O)Oc3ccccc32)cs1` (configuration not stated) are 5.63 µM, above 60 µM and above 60 µM.
On the same counts, the results for `NC(=O)C1CN(Cc2ccccn2)c2ccccc2O1` (configuration not stated) are 2.1 µM, above 60 µM and above 60 µM.

In general, IC50 refers to the concentration that inhibits the measured activity by half.

These data come from ChEMBL document CHEMBL4834428 (J Med Chem, 2021).
